In patent EP0288647B1, “Derivatives of 5-[2-(1-pyrrolidinyl)ethoxy]-p-cymene, process for their preparation, and medicaments containing these derivatives” (INSTITUT DE RECHERCHES CHIMIQUES ET BIOLOGIQUES APPLIQUEES …, priority 1987, dated 1988):

Experiments:
[1] = Acute toxicity, lethal dose 50 after oral and intravenous administration; type: in vivo, souris; conditions: mouse; for DL 50 P.O.: oral administration; for DL 50 I.V.: intravenous administration
Source text: Les doses létales 50 suivantes ont été obtenues après administration orale (P.O.) et intraveineuse (I.V.) des substances chez la souris.
Les résultats obtenus sont consignés dans le tableau I. TABLEAU I

[2] = system: canal déférent isolé du rat; test: In vitro α-adrenolytic activity: antagonism of noradrenaline contractions of isolated rat vas deferens; type: cell-based
Source text: (§1) Elle a été étudiée sur le canal déférent du rat et sur l'urètre du lapin.
(§2) La noradrénaline provoque des contractions du canal déférent isolé du rat et de l'urètre isolé du lapin. La présence dans le bain de l'organe de substances α-bloquantes antagonise ces contractions : l'utilisation de concentrations croissantes de substances α-bloquantes permet de calculer : • la pA₂ des composés sur le canal déférent du rat; la pA₂ étant le logarithme changé de signe de la concentration molaire du produit en présence de laquelle il faut multiplier par deux la concentration de noradrénaline pour obtenir le même effet qu'en l'absence du produit; • la pD'₂ des composés sur l'urètre du lapin; la pd'₂ étant le logarithme changé de signe de la concentration molaire du produit en présence de laquelle l'activité contracturante de la noradrénaline est divisée par deux.

urètre isolé du lapin = test: In vitro α-adrenolytic activity: antagonism of noradrenaline contractions of isolated rabbit urethra; type: cell-based
Source text: as §1, §2

[3] = system: toxicité de la noradrénaline; test: In vivo adrenolytic activity: protection against death caused by i.v. noradrenaline; conditions: rat, 30 min before noradrenaline 0,4 mg/kg⁻¹ I.V.
Experimental: La noradrénaline injectée à fortes doses par voie intraveineuse provoque la mort de 100 % des animaux dans les 15 minutes qui suivent son injection. La mort survient par oedème pulmonaire dû à l'hypertension artérielle induite par la stimulation des récepteurs adrénergiques. L'administration préalable de substances α-adrénolytiques par voie orale permet de réduire la toxicité de la noradrénaline. Les produits sont administrés par voie orale à des temps variables entre 30 minutes et 6 heures avant l'injection intraveineuse (I.V.) de noradrénaline (0,4 mg/kg⁻¹).

[4] = system: pressions artérielle et urétrale; test: In vivo α-blocking activity at urethral and vascular level: noradrenaline-induced rise of arterial and urethral pressure in the anaesthetised rabbit; parameters: species or system lapin; conditions: product i.v.
Source text: L'activité α-bloquante "in vivo" aux niveaux urétral et vasculaire chez le lapin anesthésié a été recherchée par administration intraveineuse des produits B 1007, B 1024, B 1058, B 1125 et B 1134.
L'injection intraveineuse de noradrénaline provoque chez le lapin une augmentation dose dépendante des pressions artérielle et urétrale. Les substances α-bloquantes injectées par voie intraveineuse antagonisent en fonction des doses ces augmentations de pression. On calcule la dose inhibitrice 50 % (D.I. 50) définie comme étant la dose de produit provoquant une diminution de 50 % des effets de la noradrénaline sur les pressions artérielle et urétrale.

[5] = system: hyperpression urétrale neurogène et pression artérielle; test: Urethral specificity in the anaesthetised dog: neurogenic urethral hyperpressure (hypogastric nerve stimulation) and arterial pressure; type: in vivo, chien; conditions: product i.v.; for Hypotension artérielle DE. 20: dose causing 20 % arterial hypotension; for Hyperpression urétrale neurogène DI. 50: electrical stimulation of the hypogastric nerve
Source text: L'effet des produits B 1007, B 1024, B 1125 et B 1134, injectés par voie intraveineuse sur l'hyperpression urétrale neurogène et sur la pression artérielle, a été recherché chez le chien anesthésié.
La stimulation électrique du nerf hypogastrique provoque une augmentation de la pression urétrale par libération de noradrénaline à partir des fibres sympathiques du nerf.
Les substances α-bloquantes antagonisent en fonction des doses ces augmentations de pression urétrale et provoquent une hypotension artérielle par action bloquante au niveau des récepteurs vasculaires.
On calcule la dose qui inhibe de 50 % (DI. 50) les effets de la stimulation du nerf hypogastrique sur la pression urétrale et la dose qui provoque une hypotension artérielle de 20 % (DE. 20).

CCCC(=O)Oc1cc(C(C)C)c(OCCN2CCCC2)cc1C.Cl [B 1132, chlorhydrate du butyryloxy-2[(pyrrolidinyl1)-2-éthoxy]-5 p-cymène]
DL 50 P.O. [1]: ≃ 500 mg/kg⁻¹
Action α-bloquante vis-à-vis de la noradrénaline sur canal déférent isolé pA₂ [2]: 7,35
Action α-bloquante vis-à-vis de la noradrénaline sur urètre isolé pD'₂ (urètre isolé du lapin): 6,0
% de protection contre la mort ([3]; 50 mg/kg⁻¹ p.o.): 90%

Cc1cc(OCCN2CCCC2)c(C(C)C)cc1O.Cl [B 1058, chlorhydratede l'hydroxy-2[(pyrrolidinyl-1)-2-éthoxy]-5 p-cymène]
DL 50 I.V. [1]: 17 mg/kg⁻¹
DL 50 P.O. [1]: 80 mg/kg⁻¹
Action α-bloquante vis-à-vis de la noradrénaline sur canal déférent isolé pA₂ [2]: 7,18
Action α-bloquante vis-à-vis de la noradrénaline sur urètre isolé pD'₂ (urètre isolé du lapin): 6,69
% de protection contre la mort ([3]; 50 mg/kg⁻¹ p.o.): 90%
D.I. 50 vis-à-vis de l'hypertension artérielle [4]: 1,22 mg/kg⁻¹
D.I. 50 vis-à-vis de l'hypertension urétrale [4]: 0,13 mg/kg⁻¹

CC(=O)Oc1cc(C(C)C)c(OCCN(C)C)cc1C [Thymoxamine, reference compound]
DL 50 I.V. [1]: 72,5 mg/kg⁻¹
DL 50 P.O. [1]: 300 mg/kg⁻¹
Action α-bloquante vis-à-vis de la noradrénaline sur canal déférent isolé pA₂ [2]: 7,25
Action α-bloquante vis-à-vis de la noradrénaline sur urètre isolé pD'₂ (urètre isolé du lapin): 7,03
% de protection contre la mort ([3]; 50 mg/kg⁻¹ p.o.): 80%
D.I. 50 vis-à-vis de l'hypertension artérielle [4]: 2,72 mg/kg⁻¹
D.I. 50 vis-à-vis de l'hypertension urétrale [4]: 0,5 mg/kg⁻¹
Hypotension artérielle DE. 20 [5]: 0,27 mg/kg⁻¹
Hyperpression urétrale neurogène DI. 50 [5]: 0,09 mg/kg⁻¹

Cc1ccc(C(C)C)c(OCCN2CCCC2)c1.Cl [B 1007, chlorhydrate du [(pyrrolidinyl-1)-2-éthoxy]-3 p-cymène]
DL 50 I.V. [1]: 75 mg/kg⁻¹
DL 50 P.O. [1]: 330 mg/kg⁻¹
Action α-bloquante vis-à-vis de la noradrénaline sur canal déférent isolé pA₂ [2]: 6,74
Action α-bloquante vis-à-vis de la noradrénaline sur urètre isolé pD'₂ (urètre isolé du lapin): 6,88
% de protection contre la mort ([3]; 50 mg/kg⁻¹ p.o.): 60%
D.I. 50 vis-à-vis de l'hypertension artérielle [4]: 7,63 mg/kg⁻¹
D.I. 50 vis-à-vis de l'hypertension urétrale [4]: 0,34 mg/kg⁻¹
Hypotension artérielle DE. 20 [5]: 2 mg/kg⁻¹
Hyperpression urétrale neurogène DI. 50 [5]: 0,35 mg/kg⁻¹

CC(=O)Oc1cc(C(C)C)c(OCCN2CCCC2)cc1C.Cl [B 1024, chlorhydratede l'acétoxy-2[(pyrrolidinyl-1)-2-éthoxy]-5 p-cymène]
DL 50 I.V. [1]: 18 mg/kg⁻¹
DL 50 P.O. [1]: 100 mg/kg⁻¹
Action α-bloquante vis-à-vis de la noradrénaline sur canal déférent isolé pA₂ [2]: 6,98
Action α-bloquante vis-à-vis de la noradrénaline sur urètre isolé pD'₂ (urètre isolé du lapin): 6,38
% de protection contre la mort ([3]; 25 mg/kg⁻¹ p.o.): 70%
D.I. 50 vis-à-vis de l'hypertension artérielle [4]: 4,14 mg/kg⁻¹
D.I. 50 vis-à-vis de l'hypertension urétrale [4]: 0,23 mg/kg⁻¹
Hypotension artérielle DE. 20 [5]: 8 mg/kg⁻¹
Hyperpression urétrale neurogène DI. 50 [5]: 0,07 mg/kg⁻¹
